For one test, the target named is T1, PfFNT G107S-GFP (Plasmodium falciparum, UniProt O77389, G107S).
T1 construct: The DNA of full-length PfFNT from Plasmodium falciparum 3D7 was cloned as a C-terminal GFP fusion; expressed in transfected cells; intact cells for imaging, LMNG-solubilized membranes for FCCS
The test is described as follows: Live cell confocal imaging, co-localization with PfFNT G107S-GFP in HEK293 cells. It is filed as cell-based. To be noted: for co-localization / membrane localization: 50 nM probe, 0.05% Triton X-100; for competition of BH267.meta-DY647 membrane localization by unlabeled compound: 100 µM unlabeled compound. An excerpt:
A PfFNT G107S mutant generated by sublethal dosing of BH296 in vitro parasite cultures has gained attention as it confers resistance against BH296, but the introduction of a scaffold nitrogen atom (BH267.meta; Figure 1) restored the effectiveness of the inhibitor [11]. The G107S mutation site is located at the cytoplasmic entrance of PfFNT and narrows the transport path precluding the binding of BH296 via sterical hinderance of the phenyl moiety of the compound. Exchange of the carbon atom in the meta-position of the aromatic ring of BH296 for a nitrogen atom introduced a hydrogen bond acceptor site for the serine hydroxyl of the resistance mutation and restored binding to the mutant PfFNT G107S. We analyzed the interaction of BH267.meta by cellular imaging. For this, we generated labeled BH267.meta-DY647 (Figure 1), expressed PfFNT G107S in HEK cells, and incubated the cells with BH296-DY647 or BH 267.meta-DY647 after treatment with 0.05% Triton X-100.
Whether these differences in signal intensity can be attributed to different affinities, to expression levels of the target protein, or to the cellular localization cannot be concluded from imaging-based experiments but requires biophysical analytical methods. However, the observation confirms previous findings that show the activity of BH267.meta on PfFNT G107S.
(§1) The confocal laser scanning microscopy was performed on an LSM 510 confocal microscope connected to an Axiovert 200M equipped with a C-Apochromat 40×/1.2 W water immersion objective (Carl Zeiss, Germany). The red fluorophore (Dy-647) was excited using a 633 nm helium–neon laser, whereas the green fluorophore (GFP) was excited using a 488 nm argon-ion laser.

Another test addresses T2, PfFNT-GFP (Plasmodium falciparum, UniProt O77389).
T2 construct: The DNA of full-length PfFNT from Plasmodium falciparum 3D7 was cloned as a C-terminal GFP fusion; expressed in transfected cells; intact cells for imaging, LMNG-solubilized membranes or lysates for FCCS
The test is described as follows: Live cell confocal imaging, co-localization with PfFNT-GFP in HEK293 cells. To be noted: for co-localization / membrane localization: probe after 0.05% Triton X-100 permeabilization, 0.5-5 min. Type of test: cell-based. As to the method: BH296-DY647 was added at a concentration of 50 nM to cultured HEK cells stably expressing PfFNT-GFP to test for co-localization of the compound with the target at the plasma membrane by confocal imaging. […] As the cytoplasmic domain of the transporter is inaccessible for the compound, we next explored possibilities to permeabilize the plasma membrane and to retain cell viability for the time of incubation. For this, we used Triton X-100 at a final concentration of 0.05%, as described previously to allow for diffusion of compounds into the cell. […] A prolonged incubation was impeded by incipient cell disintegration and membrane blebbing. We next set out to test the specificity of binding by analyzing the interaction of labeled BH296 with its unlabeled parental compound.
as §1

A further test addresses T3, PfFNT wt-GFP (Plasmodium falciparum, UniProt O77389).
T3 construct: The DNA of full-length PfFNT from Plasmodium falciparum 3D7 was cloned as a C-terminal GFP fusion; expressed in transfected cells; intact cells for imaging, LMNG-solubilized membranes or lysates for FCCS
The test is described as follows: FCCS equilibrium competition binding, PfFNT wildtype. To be noted: for complex formed in the absence of a competitor: 70 nM tracer; for Ki: Cheng Prusoff. As to the method: To analyze the binding properties of unlabeled inhibitors BH296 and […], we determined their inhibition constants (Ki) in equilibrium competition binding assays. For this, we first incubated membrane preparations comprising 10 nM of PfFNT wildtype with labeled BH296 at a concentration of 70 nM. The interaction was then competed with increasing amounts of unlabeled parental compounds BH296 and BH267.meta within a concentration range of 10 pM and 10 µM. The concentration of formed complex between PfFNT-GFP and BH296-DY647 relates to the values observed in the saturation binding assays. […] The corresponding Ki values were then calculated employing the Cheng Prusoff equation [17].
In view of the differences in complex formation of both tracers, we were also interested to see how both unlabeled compounds perform in competition experiments with BH267.meta-DY647 as a probe. The identical PfFNT-GFP membrane preparation as in the previous experiment was incubated with BH267.meta-DY647 at a concentration of 70 nM to allow for complex formation. Different amounts of competitors BH296 and BH267.meta were added to the interaction at concentrations ranging from 10 pM to 10 µM and incubated at room temperature for 1 h to allow the interaction to reach equilibrium. […] A significant amount of 20% of complex remained intact, independent of competitor concentration and incubation time. This finding is of interest because it mirrors the behavior of BH296-DY647 in saturation binding assays, where a subfraction of target appeared incapable of binding to the more space-occupying BH296 (Figure 4d, Table 2).
FCCS measurements were conducted in 384-well glass-bottom plates (cat. no PS96B-G175, SWISSCI, Switzerland) using an Insight plate reader (Evotec Technologies, Germany) fitted with a U-Apo300 40x water immersion lens, NA 1.15 (Olympus, Japan). The 488 nm laser line of an argon-ion laser and the light of a 633 nm helium–neon laser were used for excitation. Fluorescence fluctuations were recorded for 8 s with 12 repetitions and analyzed afterward using FCS+plus Analyze 1.1P (Evotec technologies, Version 1.2.5g). FCCS analysis was carried out as described previously. Briefly, for measuring the dissociation constant (KD), a titration series of 12 dilutions was prepared, where the concentration of the lysates obtained from HEK cells expressing GFP-fusions of PfFNT WT and G107S was kept constant, and the concentration of the labeled binding partner (BH296-DY647 and BH267.meta-DY647, respectively) was varied. The IC50 values were calculated by plotting the concentration from the dual labeled complex against the concentration of the competitor titrated over a concentration range from 10 µM to 10 pM. Samples were incubated for 1 h at room temperature prior to FCCS measurements to allow the formation of drug target complexes. From the resulting IC50 values, the Ki values were obtained by application of the Cheng Prusoff equation [17]. To assess the rate constants, time-resolved measurements were carried out at different concentrations of the labeled ligand. […] All KD and IC50 values, as well as kinetic parameters, were determined from three independently repeated experiments. The figures show one representative measurement; however, the calculated KD, Ki, kon and koff values are presented as an average of the three measurements ± SD. Error bars denote ± SEM.

The values below come from paper PMC8399565, “Fluorescence Cross-Correlation Spectroscopy Yields True Affinity and Binding Kinetics of Plasmodium Lactate Transport Inhibitors” (Pharmaceuticals, 2021).

The structures appear in SMILES notation. “Also recorded” adds a separate entry of the source. Read-outs that look alike come from different tables or passages of the source.

T1 sequence (O77389 whole entry G107S, the tested form may be a part): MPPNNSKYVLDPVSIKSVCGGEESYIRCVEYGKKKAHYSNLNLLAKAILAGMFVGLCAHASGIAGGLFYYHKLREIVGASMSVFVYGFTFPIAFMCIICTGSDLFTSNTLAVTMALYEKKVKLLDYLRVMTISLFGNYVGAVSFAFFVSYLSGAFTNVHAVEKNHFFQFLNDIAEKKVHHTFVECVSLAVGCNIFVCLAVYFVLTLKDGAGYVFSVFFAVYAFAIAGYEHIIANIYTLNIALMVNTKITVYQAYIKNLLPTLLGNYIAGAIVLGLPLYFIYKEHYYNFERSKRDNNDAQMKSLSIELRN
T3 sequence (O77389 whole entry, the tested form may be a part): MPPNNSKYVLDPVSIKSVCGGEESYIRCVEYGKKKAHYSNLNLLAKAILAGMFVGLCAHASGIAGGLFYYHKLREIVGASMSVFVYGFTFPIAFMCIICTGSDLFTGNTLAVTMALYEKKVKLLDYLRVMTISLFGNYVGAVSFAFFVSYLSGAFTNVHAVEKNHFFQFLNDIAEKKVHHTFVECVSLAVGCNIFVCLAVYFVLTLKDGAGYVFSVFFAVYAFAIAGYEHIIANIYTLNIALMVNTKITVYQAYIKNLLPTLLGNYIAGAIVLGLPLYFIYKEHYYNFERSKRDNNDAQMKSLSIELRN
T2 sequence (O77389 whole entry, the tested form may be a part): as above

With `CCN1/C(=C/C=C/C=C/C2=[N+](CC)c3ccc(S(=O)(=O)O)cc3C2(C)CCCC(=O)NCCOCCOCCOCCOCCC(=O)NCCCOc2ccc(C(=O)/C=C(\O)C(F)(F)C(F)(F)F)cn2)C(C)(C)c2cc(S(=O)(=O)[O-])ccc21` (stereo not shown) [BH267.meta-DY647], the “co-localization / membrane localization” value is “co-localizes; also recorded: clear membrane stain” on PfFNT G107S-GFP and “localizes with PfFNT wildtype” on PfFNT-GFP. Moreover, the “complex formed in the absence of a competitor” value at PfFNT wt-GFP (10 nM PfFNT-GFP) is recorded as 3 nM.
For orientation: Ki means the equilibrium dissociation constant of an inhibitor or competing ligand from its target. With `O=C(/C=C(\O)C(F)(F)C(F)(F)F)c1cccnc1` [BH267.meta], the “competition of BH267.meta-DY647 membrane localization by unlabeled compound” value at PfFNT G107S-GFP was “prevents membrane localization; also recorded: could be competed”. Also, at PfFNT-GFP, the “co-localization / membrane localization” value is listed as “binds efficiently”. Besides, the Ki on PfFNT wt-GFP (fluorescent probe BH267.meta-DY647 70 nM, 1 h room temperature, read-out: Ki Competitor (converted)) was 56 nM; on PfFNT wt-GFP (fluorescent probe BH296-DY647 70 nM, 10 nM PfFNT-GFP, read-out: Ki Competitor (converted)), 66 ± 6 nM.
On to `O=C(C=C(O)C(F)(F)C(F)(F)F)c1ccc(O)cc1` [BH296, 4,4,5,5,5-pentafluoro-3-hydroxy-1-(4-hydroxyphenyl)pent-2-en-1-one], for which, on PfFNT G107S-GFP, the “co-localization / membrane localization” value is reported as “did not localize to membranes” and the “competition of BH267.meta-DY647 membrane localization by unlabeled compound” value is reported as “cannot compete”. Also, the “competition of labeled tracer binding by unlabeled compound” value at PfFNT-GFP (preincubation with 100 µM unlabeled compound, tracer BH296-DY647) is listed as “prevented binding of the labeled tracer; also recorded: completely abrogated binding”. Besides, on PfFNT wt-GFP (Ki Competitor, fluorescent probe BH267.meta-DY647 70 nM, 1 h room temperature), the affinity, expressed as Ki, was 47 nM. This compound came in with a Ki on PfFNT wt-GFP (Ki Competitor, fluorescent probe BH296-DY647 70 nM, 10 nM PfFNT-GFP) of 48 ± 2 nM. Moreover, the “complex remaining intact after competition” value on PfFNT wt-GFP (tracer BH267.meta-DY647, independent of competitor concentration and incubation time) is listed as 20%.
As to `CCN1/C(=C/C=C/C=C/C2=[N+](CC)c3ccc(S(=O)(=O)O)cc3C2(C)CCCC(=O)NCCOCCOCCOCCOCCC(=O)NCCCOc2ccc(C(=O)/C=C(\O)C(F)(F)C(F)(F)F)cc2)C(C)(C)c2cc(S(=O)(=O)[O-])ccc21` (stereo not shown) [BH296-DY647], the “co-localization / binding at plasma membrane” value on PfFNT-GFP (50 nM probe, absence of Triton X-100, up to 1 h) is given as “No co-localization; also recorded: could not be observed”. Also, the “co-localization / membrane localization” value at PfFNT-GFP is recorded as “clearly visible”. The “complex formed in the absence of a competitor” value on PfFNT wt-GFP (10 nM PfFNT-GFP) is given as 1.5 nM.
